Assays:
trypsin [1] = assay: standard trypsin inhibition assay (microtest with chromogenic substrate S2444); assay type: biochemical; details: fixed amount of trypsin, 20 min at 37° C.
trypsin [2] = assay: as above; assay type: biochemical; details: fixed amount of trypsin, 20 min at 37° C.; remark: listed apart in the source
Method: The activity of the four AAT proteins purified by the method of the invention was compared to that of a standard AAT preparation derived from serum in a standard trypsin inhibition assay. The assay measures the inhibitory capacity of α1 -antitrypsin toward trypsin. It consists of a microtest using the chromogenic substrate S2444 (L-pyroglutamylglycyl-L-arginine, p-nitroanilide hydrochloride, Kabi Diagnostica, Stockholm, Sweden). The polystyrene microtest plates were incubated for 1 hr with 1% bovine serum albumin and washed extensively with distilled water. α1 -antitrypsin at various concentrations was incubated with a fixed amount of trypsin for 20 min at 37° C. in a 200- 1 final reaction volume of 0.1 M Tris-HCl pH 8.2/0.15 M NaCl/0.01 M EDTA/0.5% polyethylene glycol, Mr 6000). Samples were cooled slowly at room temperature and then exposed to the chromogenic substrate (20 μl of aqueous solution of 0.003 M S2444). After 5 min at room temperature, the reaction was stopped with 50 μl of 50% acetic acid.
Absorbance was read at 405 nm in a micro-ELISA automatic reader (Dynatech AM120). Calibration curves were determined for both trypsin and α1 -antitrypsin. Samples to be assayed were diluted serially in reaction buffer.

Substance | Optical density (A410) (trypsin [1]; AAT concentration 0.50 ug/ml) | Optical density (A410) (trypsin [1]; AAT concentration 1 ug/ml) | Optical density (A410) (trypsin [1]; AAT concentration 2 ug/ml) | Optical density (A410) (trypsin [1]; AAT concentration 2.50 ug/ml) | Optical density (A410) (trypsin [1]; AAT concentration 3.50 ug/ml) | Optical density (A410) (trypsin [1]; AAT concentration 4.50 ug/ml) | % inhibition of trypsin activity (trypsin [2]; AAT concentration 0.50 ug/ml) | % inhibition of trypsin activity (trypsin [2]; AAT concentration 1 ug/ml) | % inhibition of trypsin activity (trypsin [2]; AAT concentration 2 ug/ml) | % inhibition of trypsin activity (trypsin [2]; AAT concentration 2.50 ug/ml) | % inhibition of trypsin activity (trypsin [2]; AAT concentration 3.50 ug/ml) | % inhibition of trypsin activity (trypsin [2]; AAT concentration 4.50 ug/ml) | Optical density (A410) (trypsin [1]; AAT concentration 0.25 ug/ml) | Optical density (A410) (trypsin [1]; AAT concentration 1.50 ug/ml) | % inhibition of trypsin activity (trypsin [2]; AAT concentration 0.25 ug/ml) | % inhibition of trypsin activity (trypsin [2]; AAT concentration 1.50 ug/ml)
standard: standard AAT preparation derived from serum | .78 | .63 | .32 | .24 | .17 | .1 | 11% | 33% | 66% | 74% | 82% | 90% | – | – | – | –
3: mature AAT (having N-met in place of the N-glu) expressed in yeast [Sample 3] | 0.84 | – | – | – | – | – | 17% | – | – | – | – | – | 0.95 | 0.54 | 7% | 47%
4: AAT from human plasma, purified by the method of the invention [Sample 4] | – | 0.48 | 0.06 | – | – | – | – | 46% | 93% | – | – | – | 0.74 | – | 17% | –
